The record followed here is paper PMC12603070, “A high-throughput screening approach to discover potential colorectal cancer chemotherapeutics: repurposing drugs to identify novel disruptors of 14-3-3 proteins” (Cell Death & Disease, 2025).

Where a name gives a salt, the structure may show the parent alone. Read-outs that look alike come from different tables or passages of the source.

Assay [1] concerns HT-29 cells. As to the kind of experiment: Hoechst/propidium iodide cell death assay in HT-29. The note with it: for cytotoxicity at 20 µM: Homo sapiens. Type of assay: cell-based, human. The text has this:
(§1) A high-content imaging system (PerkinElmer; Operetta CLS), was used to quantify cell death and apoptosis by calculating the number of propidium iodide-positive cells relative to Hoechst-positive cells, and the number of Annexin V-positive cells relative to Hoechst-positive cells, respectively.

In assay [2] the test system is NIH-3T3 cells. As to the kind of experiment: Hoechst/propidium iodide cell death assay in NIH-3T3. Type of assay: cell-based. The conditions noted are these: for cytotoxicity at 20 µM: Mus musculus, NIH3T3, 24 h.
From the text: as §1

Assay [3] concerns the target T1, 14-3-3ζ:BAD-112-136F interactions (Homo sapiens, UniProt P63104).
T1 construct: expressed in transfected cells; host or cells: NIH-3T3 fibroblasts, bi-directional pBI-CMV1 plasmid
T1 sequence (P63104 1-245): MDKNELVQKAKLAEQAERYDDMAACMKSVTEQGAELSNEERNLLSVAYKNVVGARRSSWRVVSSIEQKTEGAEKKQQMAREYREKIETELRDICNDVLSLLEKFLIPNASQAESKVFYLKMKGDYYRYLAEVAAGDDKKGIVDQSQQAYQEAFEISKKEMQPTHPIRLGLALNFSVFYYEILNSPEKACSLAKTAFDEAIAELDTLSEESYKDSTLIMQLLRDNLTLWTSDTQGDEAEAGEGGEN
As to the kind of experiment: BRET sensor screen for disruption of 14-3-3ζ-Rluc8:BAD-112-136F-mCitrine in living NIH-3T3 cells. Type of assay: cell-based, murine. The arrangement: inhibition: dose or concentration left out as unconfirmed; BRET reduction on NIH-3T3: unit not given here. The conditions noted are these: for inhibition / inhibition at 20 µM: NIH3T3, 3 h. The protocol:
The Z’-score, which evaluates the robustness of an HTS assay readout, was calculated according to standard protocols. For the HTS, 384-well plates were coated with 100 μg/mL poly-L-ornithine (Sigma, Missouri, United States; #P3655) overnight at 37 °C, followed by rinsing with sterilized water. NIH-3T3 cells were transfected with the BRET sensor two days prior to experimentation, followed by replating onto the pre-coated 384-well plates at a density of 20,000 cells/well. After 24 h of incubation at 37 °C, growth media was replaced by Krebs buffer (pH 7.4).
On the technique in general: Bioluminescence resonance energy transfer reports proximity on the nanometre scale.

[4] abbreviates: HT-29, 24 h, 20 µM, 24 h, read-out: Percentage of cell death % 24h HT-29.
The mark [5] stands for this setting: HT-29, 48 h, HT-29, 48h, 20 μM, read-out: Percentage of cell death % 48h, HT-29.
Setting [6] is: 20 µM, 24 h, read-out: Percentage of cell death % 24h NIH3t3.
Where [7] appears, read: NIH-3T3 cells, hits from the primary screen, read-out: BRET reduction on NIH-3T3.
The mark [8] stands for this setting: NIH-3T3 expressing BRET sensor, 20 µM, 3 h, read-out: BRET reduction on NIH-3T3.
[9] abbreviates: NIH-3T3 cells, hits from the primary screen.
Where [10] appears, read: NIH-3T3 expressing BRET sensor, 20 µM, 3 h.

Take `CCCCCCCCCCCCCCCC[N+](C)(C)CCN(Cc1ccc(OC)cc1)c1ncccn1` [Thonzonium Bromide]: the figures for the cytotoxicity at 20 µM in assay [1] (setting [4]), in assay [1] (setting [5]) and in assay [2] (setting [6]) were 94.9%, 94.7% and 86.2%, respectively. Besides, the “Percentage of cell death % 48h, NIH3T3” value in assay [2] is on record as 80.9399%. Further, the inhibition in assay [3] (setting [7]) stood at 38.3%. The inhibition at 20 µM in assay [3] (setting [8]) was determined as 38.3%.

For `Clc1ccc(C(Cn2ccnc2)OCc2ccsc2Cl)c(Cl)c1` (stereo not drawn) [Tioconazole], the cytotoxicity at 20 µM in assay [1] (setting [4]) came to 2.22%; in assay [1] (setting [5]), 5.98%; in assay [2] (setting [6]), 7.78%. The “Percentage of cell death % 48h, NIH3T3” value in assay [2] is 3.795%. Besides, the inhibition at 20 µM in assay [3] (setting [7]) and in assay [3] (setting [8]) was 27.3% each time.

As for `Cn1cncc1[C@@](N)(c1ccc(Cl)cc1)c1ccc2c(c1)c(-c1cccc(Cl)c1)cc(=O)n2C` [Tipifarnib (Zarnestra), Tipifarnib], the cytotoxicity at 20 µM in assay [1] (HT-29, 24 h, read-out: Percentage of cell death % 24h HT-29, 20 µM, 24 h) stood at 3.09%; in assay [1] (HT-29, 48 h, read-out: Percentage of cell death % 48h, HT-29, HT-29, 48h, 20 μM), 12.9%; in assay [2] (read-out: Percentage of cell death % 24h NIH3t3, 20 µM, 24 h), 65.9%. Besides, the “Percentage of cell death % 48h, NIH3T3” value in assay [2] is recorded as 52.702%. Besides, the inhibition at 20 µM in assay [3] (read-out: BRET reduction on NIH-3T3, NIH-3T3 cells, hits from the primary screen) was 43.9%; in assay [3] (read-out: BRET reduction on NIH-3T3, NIH-3T3 expressing BRET sensor, 20 µM, 3 h) it was 43.9%.

As to `Cc1c(C)c2c(c(C)c1O)CCC(C)(COc1ccc(CC3SC(=O)NC3=O)cc1)O2` (stereo not drawn) [Troglitazone], the cytotoxicity at 20 µM in assay [1] (setting [4]) amounted to 0.272%; in assay [1] (setting [5]), 0.925%; in assay [2] (setting [6]) it was 0.791%. Also, the “Percentage of cell death % 48h, NIH3T3” value in assay [2] came to 0.3187%. In assay [3] (setting [7]), the inhibition was found to be 30.9%. Further, in assay [3] (setting [8]), the inhibition at 20 µM was 30.9%.

As to `COc1cc(C(=O)NS(=O)(=O)c2ccccc2C)ccc1Cc1cn(C)c2ccc(NC(=O)OC3CCCC3)cc12` [Zafirlukast], the cytotoxicity at 20 µM in assay [1] (setting [4]) came to 0.343%; in assay [1] (setting [5]), 0.917%; in assay [2] (setting [6]), 0.402%. Further, the “Percentage of cell death % 48h, NIH3T3” value in assay [2] turned out to be 0.2485%. The inhibition in assay [3] (setting [7]) is 30.4%. Also, in assay [3] (setting [8]), the inhibition at 20 µM was determined as 30.4%.

In the case of `O=C1Cc2cc(CCN3CCN(c4nsc5ccccc45)CC3)c(Cl)cc2N1` [Ziprasidone hydrochloride monohydrate], the cytotoxicity at 20 µM in assay [1] (setting [4]) was 1.29%; in assay [1] (setting [5]) it was 1.87%; in assay [2] (setting [6]), 1.15%. In addition, in assay [2], the “Percentage of cell death % 48h, NIH3T3” value is 0.2764%. Also, in assay [3] (setting [7]), the inhibition was determined as 25.5%. For the same molecule, the inhibition at 20 µM in assay [3] (setting [8]) was 25.5%.

Take Sodium Aescinate: the “Percentage of cell death % 24h HT-29” value in assay [1] (20 µM, 24 h) is given as 0.8457%. Moreover, the “Percentage of cell death % 48h, HT-29” value in assay [1] (HT-29, 48h, 20 μM) amounted to 0.6065%. Also, the “Percentage of cell death % 24h NIH3t3” value in assay [2] (20 µM, 24 h) is reported as 50.0783%. Also, in assay [2], the “Percentage of cell death % 48h, NIH3T3” value came out at 15.6079%. For the same molecule, the “BRET reduction on NIH-3T3” value in assay [3] (setting [9]) and in assay [3] (setting [10]) was 53.9832 each time.

On to Vitamin B12, for which the “Percentage of cell death % 24h HT-29” value in assay [1] (20 µM, 24 h) was 0.4615%. Besides, in assay [1] (HT-29, 48h, 20 μM), the “Percentage of cell death % 48h, HT-29” value was 1.059%. The “Percentage of cell death % 24h NIH3t3” value in assay [2] (20 µM, 24 h) is 0.2976%. The “Percentage of cell death % 48h, NIH3T3” value in assay [2] came out at 0.1179%. In addition, the “BRET reduction on NIH-3T3” value in assay [3] (setting [9]) and in assay [3] (setting [10]) was 36.7374 throughout.
